{
  "source": "patent US10597388B2",
  "about": "“Pyridazinone herbicides” (FMC CORPORATION, priority 2014, dated 2020)",
  "assay_type_in_all_cases": "in vivo",
  "key": {"[1]": {"test_system": "momingglory (Ipomoea spp.)", "test": "Test A greenhouse herbicide test, pre- and postemergence", "conditions": "240 h; for pest or weed control at 125 g/ha: 125 g ai/ha; for pest or weed control at 500 g/ha: 500 g ai/ha; for pest or weed control at 500 g/ha / pest or weed control at 1000 g/ha: 0 to 100 scale; for pest or weed control at 1000 g/ha: 1000 g ai/ha", "outline": "(§1)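 Visual injury ratings, 0 (no effect) to 100 (complete control), versus untreated plants after roughly 10 d in a greenhouse. Compounds, formulated in a surfactant-containing non-phytotoxic solvent, were sprayed on loam–sand soil after sowing (pre) or on one- to two-leaf plants 2–10 cm tall (post).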"}, "[2]": {"test_system": "velvetleaf (Abutilon theophrasti)", "test": "Test A greenhouse herbicide test, pre- and postemergence", "conditions": "240 h; for pest or weed control at 125 g/ha: 125 g ai/ha; for pest or weed control at 500 g/ha: 500 g ai/ha; for pest or weed control at 500 g/ha / pest or weed control at 1000 g/ha: 0 to 100 scale; for pest or weed control at 1000 g/ha: 1000 g ai/ha", "outline": "as §1"}, "[3]": {"test_system": "foxtail, giant (giant foxtail, Setaria faberii)", "test": "Test E greenhouse herbicide test, pre- and postemergence", "conditions": "Preemergence", "outline": "(§2)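 Visual ratings, 0 for no effect up to 100 for complete control, were taken relative to controls 14 to 21 d after greenhouse treatment. Applications used a surfactant-containing non-phytotoxic solvent formulation, sprayed either preemergence on silt loam-sown seed or postemergence on 1- to 4-leaf plants 2-18 cm tall in peat-based potting medium.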"}, "[4]": {"test_system": "wild poinsettia (Euphorbia heterophylla)", "test": "Test E greenhouse herbicide test, pre- and postemergence", "outline": "as §2"}, "[5]": {"conditions": "post-emergence, Postemergence, 0 is no effect, 100 is complete control, read-out: Morningglory plant response rating"}, "[6]": {"conditions": "pre-emergence, Preemergence, 0 no effect, 100 complete control, read-out: Plant response rating, Morningglory"}, "[7]": {"conditions": "post-emergence, Postemergence, 0 is no effect, 100 is complete control, read-out: Velvetleaf plant response rating"}, "[8]": {"conditions": "pre-emergence, Preemergence, 0 no effect, 100 complete control, read-out: Plant response rating, Velvetleaf"}},
  "note": "Read-outs that look alike come from different tables or passages of the source.",
  "data": [
    {"compound": "Cc1nn(C)c(=O)c(-c2c(C)oc3c(C)cccc23)c1O", "note": "[Compound 9, 4-(2,7-dimethyl-3-benzofuranyl)-5-hydroxy-2,6-dimethyl-3(2H)-pyridazinone]", "values": [
      {"measurement": "pest or weed control at 125 g/ha", "setting": "[1]; post-emergence, Postemergence, visual rating after approx. 10 d, 0 to 100 scale (0 no effect, 100 complete control), read-out: Plant response rating, Morningglory", "result": 40, "unit": "%"},
      {"measurement": "pest or weed control at 500 g/ha", "setting": "[1]; [5]", "result": 80, "unit": "%"},
      {"measurement": "pest or weed control at 125 g/ha", "setting": "[1]; pre-emergence, Preemergence, 0 to 100 scale where 0 is no effect and 100 is complete control, read-out: Morningglory plant response rating", "result": 0, "unit": "%"},
      {"measurement": "pest or weed control at 500 g/ha", "setting": "[1]; [6]", "result": 0, "unit": "%"},
      {"measurement": "pest or weed control at 125 g/ha", "setting": "[2]; post-emergence, Postemergence, visual rating after approx. 10 d, 0 to 100 scale (0 no effect, 100 complete control), read-out: Plant response rating, Velvetleaf", "result": 0, "unit": "%"},
      {"measurement": "pest or weed control at 500 g/ha", "setting": "[2]; [7]", "result": 10, "unit": "%"},
      {"measurement": "pest or weed control at 125 g/ha", "setting": "[2]; pre-emergence, Preemergence, 0 to 100 scale where 0 is no effect and 100 is complete control, read-out: Velvetleaf plant response rating", "result": 0, "unit": "%"},
      {"measurement": "pest or weed control at 500 g/ha", "setting": "[2]; [8]", "result": 0, "unit": "%"}
    ]},
    {"compound": "Cc1ccc2sc(C)c(-c3c(O)c(C)nn(C)c3=O)c2c1", "note": "[Compound 1, 4-(2,5-dimethylbenzo[b]thien-3-yl)-5-hydroxy-2,6-dimethyl-3(2H)-pyridazinone]", "values": [
      {"measurement": "pest or weed control at 1000 g/ha", "setting": "[1]; [5]", "result": 100, "unit": "%"},
      {"measurement": "pest or weed control at 1000 g/ha", "setting": "[1]; [6]", "result": 90, "unit": "%"},
      {"measurement": "pest or weed control at 1000 g/ha", "setting": "[2]; [7]", "result": 100, "unit": "%"},
      {"measurement": "pest or weed control at 1000 g/ha", "setting": "[2]; [8]", "result": 100, "unit": "%"},
      {"measurement": "Plant response rating, Foxtail, Giant", "setting": "[3]; 62 g ai/ha, scale 0 to 100 (0 no effect, 100 complete control)", "result": 35},
      {"measurement": "Plant response rating, Foxtail, Giant", "setting": "[3]; 16 g ai/ha, scale 0 to 100, 0 no effect, 100 complete control", "result": 0},
      {"measurement": "Plant response rating, Foxtail, Giant", "setting": "[3]; 31 g ai/ha, scale 0 to 100, 0 no effect, 100 complete control", "result": 50},
      {"measurement": "Plant response rating, Foxtail, Giant", "setting": "[3]; 125 g ai/ha, visual, scale 0 no effect to 100 complete control", "result": 95},
      {"measurement": "Plant response rating, Foxtail, Giant", "setting": "[3]; 250 g ai/ha, visual, scale 0 no effect to 100 complete control", "result": 98},
      {"measurement": "Plant response rating, Poinsettia, Wild", "setting": "[4]; 62 g ai/ha, Postemergence, scale 0 to 100 (0 no effect, 100 complete control)", "result": 15},
      {"measurement": "Plant response rating, Poinsettia, Wild", "setting": "[4]; 62 g ai/ha, Preemergence, scale 0 to 100 (0 no effect, 100 complete control)", "result": 30},
      {"measurement": "Plant response rating, Poinsettia, Wild", "setting": "[4]; 125 g ai/ha, Postemergence, scale 0 to 100 (0 no effect, 100 complete control)", "result": 15},
      {"measurement": "Plant response rating, Poinsettia, Wild", "setting": "[4]; 125 g ai/ha, Preemergence, scale 0 to 100 (0 no effect, 100 complete control)", "result": 30},
      {"measurement": "Plant response rating, Poinsettia, Wild", "setting": "[4]; 250 g ai/ha, Postemergence, scale 0 to 100 (0 no effect, 100 complete control)", "result": 35},
      {"measurement": "Plant response rating, Poinsettia, Wild", "setting": "[4]; Postemergence, 16 g ai/ha, visual, scale 0 no effect to 100 complete control", "result": 5},
      {"measurement": "Plant response rating, Poinsettia, Wild", "setting": "[4]; Postemergence, 31 g ai/ha, visual, scale 0 no effect to 100 complete control", "result": 10},
      {"measurement": "Plant response rating, Poinsettia, Wild", "setting": "[4]; Preemergence, 16 g ai/ha, scale 0 to 100, 0 no effect, 100 complete control", "result": 20},
      {"measurement": "Plant response rating, Poinsettia, Wild", "setting": "[4]; Preemergence, 31 g ai/ha, scale 0 to 100, 0 no effect, 100 complete control", "result": 30},
      {"measurement": "Plant response rating, Poinsettia, Wild", "setting": "[4]; Preemergence, 250 g ai/ha, visual, scale 0 no effect to 100 complete control", "result": 35}
    ]}
  ]
}
